From US9295631B2, “Skin lightening composition” (Conopco, Inc., priority 2012, dated 2016)

Test system: Primary human melanocytes
Test: Melanin content in-vitro assay after siRNA transfection
Type: cell-based
Set-up: dose or concentration left out as unconfirmed
Conditions: 72 hours; average of 3 readings
Protocol: Ten siRNA double strands of which one strand has the oligonucleotide as given below were synthetically prepared and used to estimate the potential as skin lightening agent using the melanin content in-vitro assay. It is clear to a person skilled in this area that specifying a single strand is sufficient to fully define the double stranded siRNA. The in-vitro assay was carried out as below: Primary human melanocytes were cultured for 24 hrs. Cells were transfected with Mirus Trans IT-TKO transfection reagent and duplex oligomers in culture media. […] After 1 hour at 60° C., absorbance was measured at 400 nm. Melanin content is expressed as % melanin content over scramble treated cells. The experiments were carried out and the data on melanin content as a percentage of the control sample is summarized as an average of 3 readings in table 1. Kojic acid is known to complete action within 72 hours.

Structure (SMILES): O=c1cc(CO)occ1O [Kojic acid]
- % control melanin: 76%
